Data as given in patent US20260226493A1, “HERBICIDE RESISTANT PLANTS” (SYNGENTA CROP PROTECTION AG, priority 2023, published 2026).

Legend:
Assay in all cases: BIO3-BIO1 mutant enzyme activity in the presence of herbicide, percentage inhibition (fluorometric DAPA assay)
Assay type in all cases: biochemical
Conditions in all cases: read-out: percentage inhibition
[1] = target: T1, Arabidopsis thaliana BIO3-BIO1 (BioDA) mutants (Arabidopsis thaliana, UniProt B0F481, A609M)
T1 construct: with the predicted N-terminal mitochondrial transit peptide removed; 6xHis-tag (N); thrombin cleavage site (N); made in house; host or cells: E. coli BL21 (DE3) bioA
Outline: (§1)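 Percentage inhibition compares activity at one of three herbicide concentrations against DMSO, from o-phthalaldehyde-derivatised DAPA fluorescence (ex 410, em 470 nm). Purified N-His BIO3-BIO1 variants (50 nM, E. coli-expressed) saw herbicide 10 min at 20 °C in pH 8.6 EPPS buffer, then 20 μM KAPA plus 100 μM spermidine for 75 min at 20 °C.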

[2] = target: T2, Arabidopsis thaliana BIO3-BIO1 (BioDA) mutants (Arabidopsis thaliana, UniProt B0F481, C388D)
T2 construct: with the predicted N-terminal mitochondrial transit peptide removed; 6xHis-tag (N); thrombin cleavage site (N); made in house; host or cells: E. coli BL21 (DE3) bioA
Outline: as §1

[3] = target: T3, Arabidopsis thaliana BIO3-BIO1 (BioDA) mutants (Arabidopsis thaliana, UniProt B0F481, G513L)
T3 construct: with the predicted N-terminal mitochondrial transit peptide removed; 6xHis-tag (N); thrombin cleavage site (N); made in house; host or cells: E. coli BL21 (DE3) bioA
Outline: as §1

[4] = target: T4, Arabidopsis thaliana BIO3-BIO1 (BioDA) mutants (Arabidopsis thaliana, UniProt B0F481, P421G)
T4 construct: with the predicted N-terminal mitochondrial transit peptide removed; 6xHis-tag (N); thrombin cleavage site (N); made in house; host or cells: E. coli BL21 (DE3) bioA
Outline: as §1

[5] = target: T5, Arabidopsis thaliana BIO3-BIO1 (BioDA) mutants (Arabidopsis thaliana, UniProt B0F481, P421L)
T5 construct: with the predicted N-terminal mitochondrial transit peptide removed; 6xHis-tag (N); thrombin cleavage site (N); made in house; host or cells: E. coli BL21 (DE3) bioA
Outline: as §1

[6] = target: T6, Arabidopsis thaliana BIO3-BIO1 (BioDA) mutants (Arabidopsis thaliana, UniProt B0F481, P508T)
T6 construct: with the predicted N-terminal mitochondrial transit peptide removed; 6xHis-tag (N); thrombin cleavage site (N); made in house; host or cells: E. coli BL21 (DE3) bioA
Outline: as §1

[7] = target: T7, Arabidopsis thaliana BIO3-BIO1 (BioDA) mutants (Arabidopsis thaliana, UniProt B0F481, Q350H)
T7 construct: with the predicted N-terminal mitochondrial transit peptide removed; 6xHis-tag (N); thrombin cleavage site (N); made in house; host or cells: E. coli BL21 (DE3) bioA
Outline: as §1

[8] = target: T8, Arabidopsis thaliana BIO3-BIO1 (BioDA) mutants (Arabidopsis thaliana, UniProt B0F481, Q517W)
T8 construct: with the predicted N-terminal mitochondrial transit peptide removed; 6xHis-tag (N); thrombin cleavage site (N); made in house; host or cells: E. coli BL21 (DE3) bioA
Outline: as §1

[9] = target: T9, Arabidopsis thaliana BIO3-BIO1 (BioDA) mutants (Arabidopsis thaliana, UniProt B0F481, R797Q)
T9 construct: with the predicted N-terminal mitochondrial transit peptide removed; 6xHis-tag (N); thrombin cleavage site (N); made in house; host or cells: E. coli BL21 (DE3) bioA
Outline: as §1

[10] = target: T10, Arabidopsis thaliana BIO3-BIO1 (BioDA) mutants (Arabidopsis thaliana, UniProt B0F481, W392S)
T10 construct: with the predicted N-terminal mitochondrial transit peptide removed; 6xHis-tag (N); thrombin cleavage site (N); made in house; host or cells: E. coli BL21 (DE3) bioA
Outline: as §1

[11] = target: T11, Arabidopsis thaliana BIO3-BIO1 (BioDA) mutants (Arabidopsis thaliana, UniProt B0F481, Y511F)
T11 construct: with the predicted N-terminal mitochondrial transit peptide removed; 6xHis-tag (N); thrombin cleavage site (N); made in house; host or cells: E. coli BL21 (DE3) bioA
Outline: as §1

[12] = target: T12, Arabidopsis thaliana BIO3-BIO1 (BioDA) mutants (Arabidopsis thaliana, UniProt B0F481, Y511R)
T12 construct: with the predicted N-terminal mitochondrial transit peptide removed; 6xHis-tag (N); thrombin cleavage site (N); made in house; host or cells: E. coli BL21 (DE3) bioA
Outline: as §1

T4 sequence (B0F481 23-833 P421G): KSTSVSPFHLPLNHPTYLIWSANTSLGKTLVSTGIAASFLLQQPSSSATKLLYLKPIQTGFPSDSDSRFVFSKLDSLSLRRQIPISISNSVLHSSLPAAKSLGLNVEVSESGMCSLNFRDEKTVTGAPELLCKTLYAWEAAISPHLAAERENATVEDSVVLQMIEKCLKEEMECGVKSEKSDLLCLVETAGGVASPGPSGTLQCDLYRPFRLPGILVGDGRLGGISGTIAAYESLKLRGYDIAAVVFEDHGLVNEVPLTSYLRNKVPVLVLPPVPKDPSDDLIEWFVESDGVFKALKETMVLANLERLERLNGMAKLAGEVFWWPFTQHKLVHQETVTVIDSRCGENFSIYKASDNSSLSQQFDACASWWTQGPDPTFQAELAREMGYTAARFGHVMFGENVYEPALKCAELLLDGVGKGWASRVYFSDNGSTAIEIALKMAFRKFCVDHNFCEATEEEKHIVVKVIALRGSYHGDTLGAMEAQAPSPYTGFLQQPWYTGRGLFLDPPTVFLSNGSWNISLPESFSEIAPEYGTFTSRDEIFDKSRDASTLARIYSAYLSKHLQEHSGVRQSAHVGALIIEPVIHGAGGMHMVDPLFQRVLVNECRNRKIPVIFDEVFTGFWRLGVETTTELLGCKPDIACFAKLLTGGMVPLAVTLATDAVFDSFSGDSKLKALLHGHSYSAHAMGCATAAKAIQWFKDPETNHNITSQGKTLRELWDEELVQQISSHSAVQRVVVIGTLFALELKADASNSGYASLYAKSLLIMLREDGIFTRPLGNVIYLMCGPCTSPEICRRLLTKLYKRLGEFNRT
T2 sequence (B0F481 23-833 C388D): as the sequence (B0F481 23-833 P421G) above, with C366D, G399P counted along it
T9 sequence (B0F481 23-833 R797Q): as the sequence (B0F481 23-833 P421G) above, with G399P, R775Q counted along it
T1 sequence (B0F481 23-833 A609M): as the sequence (B0F481 23-833 P421G) above, with G399P, A587M counted along it
T6 sequence (B0F481 23-833 P508T): as the sequence (B0F481 23-833 P421G) above, with G399P, P486T counted along it
T3 sequence (B0F481 23-833 G513L): as the sequence (B0F481 23-833 P421G) above, with G399P, G491L counted along it
T7 sequence (B0F481 23-833 Q350H): as the sequence (B0F481 23-833 P421G) above, with Q328H, G399P counted along it
T5 sequence (B0F481 23-833 P421L): as the sequence (B0F481 23-833 P421G) above, with G399L counted along it
T11 sequence (B0F481 23-833 Y511F): as the sequence (B0F481 23-833 P421G) above, with G399P, Y489F counted along it
T10 sequence (B0F481 23-833 W392S): as the sequence (B0F481 23-833 P421G) above, with W370S, G399P counted along it
T8 sequence (B0F481 23-833 Q517W): as the sequence (B0F481 23-833 P421G) above, with G399P, Q495W counted along it
T12 sequence (B0F481 23-833 Y511R): as the sequence (B0F481 23-833 P421G) above, with G399P, Y489R counted along it

CCn1c(Cn2ccc(C(F)(F)F)n2)cc(=O)c(C(=O)O)c1-c1ccc(Cl)c(Cl)c1 [Compound L, 2-(3,4-dichlorophenyl)-1-ethyl-4-oxo-6-[[3-(trifluoromethyl)pyrazol-1-yl]methyl]pyridine-3-carboxylic acid]
inhibition at 0.01 µM [1]: 3%
inhibition at 0.075 µM [1]: 17%
inhibition at 0.5 µM [1]: 19%
inhibition at 0.01 µM [2]: 0%
inhibition at 0.075 µM [2]: 0%
inhibition at 0.5 µM [2]: 6%
inhibition at 0.01 µM [3]: 58%
inhibition at 0.075 µM [3]: 88%
inhibition at 0.5 µM [3]: 97%
inhibition at 0.01 µM [4]: 9%
inhibition at 0.075 µM [4]: 11%
inhibition at 0.5 µM [4]: 85%
inhibition at 0.01 µM [5]: 0%
inhibition at 0.075 µM [5]: 10%
inhibition at 0.5 µM [5]: 45%
inhibition at 0.01 µM [6]: 25%
inhibition at 0.075 µM [6]: 22%
inhibition at 0.5 µM [6]: 85%
inhibition at 0.01 µM [7]: 0%
inhibition at 0.075 µM [7]: 16%
inhibition at 0.5 µM [7]: 38%

CCn1c(C)c(-c2ccc(F)cc2F)c(=O)c(C(=O)O)c1-c1ccc(Cl)c(Cl)c1 [Compound C, 2-(3,4-dichlorophenyl)-5-(2,4-difluorophenyl)-1-ethyl-6-methyl-4-oxo-pyridine-3-carboxylic acid]
inhibition at 0.2 µM [1]: 9%
inhibition at 1 µM [1]: 5%
inhibition at 5 µM [1]: 13%
inhibition at 0.2 µM [2]: 5%
inhibition at 1 µM [2]: 0%
inhibition at 5 µM [2]: 9%
inhibition at 0.2 µM [3]: 69%
inhibition at 1 µM [3]: 92%
inhibition at 5 µM [3]: 98%
inhibition at 0.2 µM [4]: 11%
inhibition at 1 µM [4]: 35%
inhibition at 5 µM [4]: 80%
inhibition at 0.2 µM [5]: 4%
inhibition at 1 µM [5]: 35%
inhibition at 5 µM [5]: 67%
inhibition at 0.2 µM [6]: 23%
inhibition at 1 µM [6]: 54%
inhibition at 5 µM [6]: 82%
inhibition at 0.2 µM [7]: 0%
inhibition at 1 µM [7]: 2%
inhibition at 5 µM [7]: 25%
inhibition at 0.2 µM [8]: 29%
inhibition at 1 µM [8]: 72%
inhibition at 5 µM [8]: 90%
inhibition at 0.2 µM [9]: 7%
inhibition at 1 µM [9]: 32%
inhibition at 5 µM [9]: 52%
inhibition at 0.2 µM [10]: 0%
inhibition at 1 µM [10]: 0%
inhibition at 5 µM [10]: 20%
inhibition at 0.2 µM [11]: 44%
inhibition at 1 µM [11]: 67%
inhibition at 5 µM [11]: 90%
inhibition at 0.2 µM [12]: 80%
inhibition at 1 µM [12]: 99%
inhibition at 5 µM [12]: 99%

CCOC(=O)c1nn(-c2ccc3c(c2)OC(F)(F)C(F)(F)O3)c2cccc(C(C)=O)c2c1=O [Compound A, ethyl 5-acetyl-4-oxo-1-(2,2,3,3-tetrafluoro-1,4-benzodioxin-6-yl)cinnoline-3-carboxylate]
inhibition at 1 µM [1]: 3%
inhibition at 1 µM [2]: 14%
inhibition at 1 µM [3]: 89%
inhibition at 1 µM [4]: 30%
inhibition at 1 µM [5]: 61%
inhibition at 1 µM [6]: 55%
inhibition at 1 µM [7]: 23%
inhibition at 1 µM [8]: 9%
inhibition at 1 µM [9]: 35%
inhibition at 1 µM [10]: 23%
inhibition at 1 µM [11]: 79%
inhibition at 1 µM [12]: 46%

CCn1c(-c2ccc(Cl)c(Cl)c2)c(C(=O)O)c(=O)c2cc(F)ccc21 [Compound M, 2-(3,4-dichlorophenyl)-1-ethyl-6-fluoro-4-oxo-quinoline-3-carboxylic acid]
inhibition at 0.2 µM [1]: 5%
inhibition at 1 µM [1]: 0%
inhibition at 5 µM [1]: 11%
inhibition at 0.2 µM [2]: 0%
inhibition at 1 µM [2]: 0%
inhibition at 5 µM [2]: 0%
inhibition at 0.2 µM [3]: 54%
inhibition at 1 µM [3]: 85%
inhibition at 5 µM [3]: 97%
inhibition at 0.2 µM [4]: 19%
inhibition at 1 µM [4]: 39%
inhibition at 5 µM [4]: 75%
inhibition at 0.2 µM [5]: 0%
inhibition at 1 µM [5]: 6%
inhibition at 5 µM [5]: 31%
inhibition at 0.2 µM [6]: 20%
inhibition at 1 µM [6]: 44%
inhibition at 5 µM [6]: 78%
inhibition at 0.2 µM [7]: 0%
inhibition at 1 µM [7]: 8%
inhibition at 5 µM [7]: 20%
inhibition at 0.2 µM [8]: 26%
inhibition at 1 µM [8]: 51%
inhibition at 5 µM [8]: 79%
inhibition at 0.2 µM [9]: 0%
inhibition at 1 µM [9]: 5%
inhibition at 5 µM [9]: 30%
inhibition at 0.2 µM [10]: 0%
inhibition at 1 µM [10]: 0%
inhibition at 5 µM [10]: 0%
inhibition at 0.2 µM [11]: 24%
inhibition at 1 µM [11]: 57%
inhibition at 5 µM [11]: 82%
inhibition at 0.2 µM [12]: 74%
inhibition at 1 µM [12]: 96%
inhibition at 5 µM [12]: 99%
